Our source for the Ratio EC50, EC50 and Emax values is ChEMBL document CHEMBL5260859, “Discovery and structure-activity relationship study of 2-piperazinyl-benzothiazole derivatives as potent and selective PPARδ agonists” (Bioorg Med Chem, 2023).

Assay type in all cases: cell-based
Assay [1] is filed under the species Mus musculus. The assay can be described thus: Selectivity ratio of EC50 for agonist activity at Gal4-fused mouse PPAR-gamma ligand binding domain expressed in CHO-K1 cells to EC50 for agonist activity at Gal4-fused mouse PPAR-delta ligand binding domain expressed in CHO-K1 cells.
The species entered for assay [2] is Homo sapiens. Put plainly: Selectivity ratio of EC50 for agonist activity at Gal4-fused human PPAR-alpha ligand binding domain expressed in CHO-K1 cells to EC50 for agonist activity at Gal4-fused human PPAR-delta ligand binding domain expressed in CHO-K1 cells.
The species entered for assay [3] is Mus musculus. The assay can be described thus: Selectivity ratio of EC50 for agonist activity at Gal4-fused mouse PPAR-alpha ligand binding domain expressed in CHO-K1 cells to EC50 for agonist activity at Gal4-fused mouse PPAR-delta ligand binding domain expressed in CHO-K1 cells.
In assay [4] the target is T1, Peroxisome proliferator-activated receptor alpha (Mus musculus, UniProt P23204).
T1 sequence (P23204 whole entry): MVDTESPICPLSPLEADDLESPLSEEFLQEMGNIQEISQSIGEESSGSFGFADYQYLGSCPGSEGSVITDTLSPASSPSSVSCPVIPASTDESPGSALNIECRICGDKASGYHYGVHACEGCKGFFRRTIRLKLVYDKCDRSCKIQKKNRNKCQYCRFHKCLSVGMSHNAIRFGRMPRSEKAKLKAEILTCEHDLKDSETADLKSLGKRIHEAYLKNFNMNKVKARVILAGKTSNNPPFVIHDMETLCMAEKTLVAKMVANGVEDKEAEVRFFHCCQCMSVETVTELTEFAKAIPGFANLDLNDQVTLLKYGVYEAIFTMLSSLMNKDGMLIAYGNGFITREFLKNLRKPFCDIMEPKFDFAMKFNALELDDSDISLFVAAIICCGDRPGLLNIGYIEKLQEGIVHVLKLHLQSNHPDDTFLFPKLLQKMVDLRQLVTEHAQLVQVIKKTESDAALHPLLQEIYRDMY
The assay can be described thus: Agonist activity at Gal4-fused mouse PPAR-alpha ligand binding domain expressed in CHO-K1 cells assessed as receptor transactivation incubated for 24 to 48 hrs by luciferase reporter gene assay. A general note: Reporter assays use an easily measured gene product as a stand-in for the process of interest.

Assay [5] deals with T2, Peroxisome proliferator-activated receptor delta (Homo sapiens) (UniProt Q03181).
T2 sequence (whole entry): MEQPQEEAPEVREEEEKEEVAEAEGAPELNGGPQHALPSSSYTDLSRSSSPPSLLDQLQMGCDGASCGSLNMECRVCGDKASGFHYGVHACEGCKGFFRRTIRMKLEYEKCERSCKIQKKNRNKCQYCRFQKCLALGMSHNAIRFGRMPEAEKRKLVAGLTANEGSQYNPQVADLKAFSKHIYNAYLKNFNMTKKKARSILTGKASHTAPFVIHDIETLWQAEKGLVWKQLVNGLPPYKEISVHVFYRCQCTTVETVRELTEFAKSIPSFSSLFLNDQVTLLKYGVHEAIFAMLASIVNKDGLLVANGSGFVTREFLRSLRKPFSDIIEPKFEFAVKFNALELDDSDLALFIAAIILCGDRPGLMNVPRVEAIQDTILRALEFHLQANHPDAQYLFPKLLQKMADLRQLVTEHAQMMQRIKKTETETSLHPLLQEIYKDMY
Put plainly: Agonist activity at Gal4-fused human PPAR-delta ligand binding domain expressed in CHO-K1 cells assessed as receptor transactivation incubated for 24 to 48 hrs by luciferase reporter gene assay relative to control. The note with it: time lower 24.0 hrs, time upper […].

Assay [6] addresses T3, Peroxisome proliferator-activated receptor delta (Mus musculus) (UniProt P35396).
T3 sequence (whole entry): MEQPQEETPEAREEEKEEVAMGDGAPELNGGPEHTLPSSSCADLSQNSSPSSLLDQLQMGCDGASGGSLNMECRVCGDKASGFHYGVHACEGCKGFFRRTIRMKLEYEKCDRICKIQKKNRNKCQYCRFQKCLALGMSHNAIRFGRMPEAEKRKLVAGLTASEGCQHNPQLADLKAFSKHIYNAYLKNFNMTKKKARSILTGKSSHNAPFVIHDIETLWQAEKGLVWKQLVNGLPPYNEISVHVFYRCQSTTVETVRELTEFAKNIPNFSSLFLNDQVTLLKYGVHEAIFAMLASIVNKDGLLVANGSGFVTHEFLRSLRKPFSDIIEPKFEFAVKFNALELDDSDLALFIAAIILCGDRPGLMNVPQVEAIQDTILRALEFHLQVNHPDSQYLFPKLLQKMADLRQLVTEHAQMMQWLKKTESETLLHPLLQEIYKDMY
The assay can be described thus: Agonist activity at Gal4-fused mouse PPAR-delta ligand binding domain expressed in CHO-K1 cells assessed as receptor transactivation incubated for 24 to 48 hrs by luciferase reporter gene assay relative to control. The conditions noted are these: time lower 24.0 hrs, time upper […].

Assay [7] concerns the target T4, Peroxisome proliferator-activated receptor alpha (Homo sapiens) (UniProt Q07869).
T4 sequence (whole entry): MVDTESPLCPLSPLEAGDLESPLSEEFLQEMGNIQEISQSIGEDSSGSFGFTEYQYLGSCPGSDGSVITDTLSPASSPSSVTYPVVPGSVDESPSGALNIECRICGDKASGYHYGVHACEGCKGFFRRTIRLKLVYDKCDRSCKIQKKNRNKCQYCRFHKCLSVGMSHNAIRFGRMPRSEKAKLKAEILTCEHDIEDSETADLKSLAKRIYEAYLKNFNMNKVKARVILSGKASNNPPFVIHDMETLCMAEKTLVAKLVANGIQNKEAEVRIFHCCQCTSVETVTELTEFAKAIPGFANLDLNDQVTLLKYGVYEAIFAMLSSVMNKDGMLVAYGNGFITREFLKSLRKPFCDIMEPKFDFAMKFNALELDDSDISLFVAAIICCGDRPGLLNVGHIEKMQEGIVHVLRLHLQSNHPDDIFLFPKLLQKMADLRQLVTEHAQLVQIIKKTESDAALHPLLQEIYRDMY
Put plainly: Agonist activity at Gal4-fused human PPAR-alpha ligand binding domain expressed in CHO-K1 cells assessed as receptor transactivation incubated for 24 to 48 hrs by luciferase reporter gene assay relative to control. The note with it: time lower 24.0 hrs, time upper […].

The target in assay [8] is T5, Peroxisome proliferator-activated receptor alpha (Mus musculus) (UniProt P23204).
T5 sequence (whole entry): T1 sequence (P23204 whole entry)
Put plainly: Agonist activity at Gal4-fused mouse PPAR-alpha ligand binding domain expressed in CHO-K1 cells assessed as receptor transactivation incubated for 24 to 48 hrs by luciferase reporter gene assay relative to control. The note with it: time lower 24.0 hrs, time upper […].

The structures appear in SMILES notation.

By EC50 is commonly meant the concentration that produces a half-maximal response. Take `Cc1ccc(CC(=O)O)cc1OCCC1CCN(c2nc3ccc(Cl)cc3s2)CC1`: the Ratio EC50 in assay [1] worked out at 10; in assay [2] it was 39; in assay [3] it was 16. Moreover, in assay [4], the EC50 amounted to 1130 nM. The Emax was 16.2% in assay [5], 20% in assay [6], 8% in assay [7] and 15.5% in assay [8].
